Measurements as given in patent US20250338850A1, “COMPOSITION AND METHOD FOR CONTROLLING WEEDS IN TURFGRASS” (SYNGENTA CROP PROTECTION AG, priority 2022, published 2025).

How the values were obtained:
[1] = system: kikuyugrass; assay: Turfgrass injury trial on kikuyugrass; assay type: in vivo
Source text: In a kikuyugrass trial, trifloxysulfuron (TSS) (Monument 75 WDG) was applied solo at 28 g ai/ha and compared to a mixture of TSS and metcamifen (MET). The TSS-MET mixture contains trifloxysulfuron and meticamifen at a ratio of 20 to 75 g. Both Monument and the TSS-MET mixture were applied at 28 g ai/ha TSS.

[2] = system: St Augustinegrass variety 'Classic'; assay: Turfgrass injury trial on St Augustinegrass variety 'Classic'; assay type: in vivo
Source text: In a trial conducted on St Augustinegrass variety ‘Classic’, trifloxysulfuron (TSS) (Monument 75 WDG) was applied at 28 g ai/ha with and without metcamifen applied at 30, 75 and 150 g ai/ha. Two applications were applied on a 30-day interval (initial treatment and second treatment).

SMILES | trifloxysulfuron safening ([1]; TSS-MET mixture at 28 g ai/ha TSS) | injury at all rating dates ([2]; TSS 28 g ai/ha with metcamifen at 30, 75 and 150 g ai/ha, all rating dates) | trifloxysulfuron safening ([2]; metcamifen 30, 75 and 150 g ai/ha with TSS 28 g ai/ha) | injury, 7DAA-2 ([1]; 28 g ai/ha TSS, 7 days after application 2) | injury, 14DAA-1 ([1]; 28 g ai/ha TSS, 14 days after application 1) | injury, 14 DAA-2 ([1]; 28 g ai/ha TSS, 14 days after application 2) | injury, 21 DAA-1 ([1]; 28 g ai/ha TSS, 21 days after application 1) | injury, 21 DAA-2 ([1]; 28 g ai/ha TSS, 21 days after application 2) | injury, 28 DAA-1 ([1]; 28 g ai/ha TSS, 28 days after application 1) | injury, 28 DAA-2 ([1]; 28 g ai/ha TSS, 28 days after application 2) | injury ([1]; trifloxysulfuron solo 28 g ai/ha, two applications on a 28-day interval) | injury, 9 DAIT (Initial Treatment) ([2]; TSS 28 g ai/ha, 9 days after the initial application) | injury, 17 DAIT ([2]; TSS 28 g ai/ha, 17 days after the initial application) | injury, 24 DAIT ([2]; TSS 28 g ai/ha, 24 days after the initial application) | injury, 30 DAIT (Second Treatment) ([2]; TSS 28 g ai/ha, 30 days after the initial application) | injury, 41 DAIT ([2]; TSS 28 g ai/ha, two applications, 30-day interval, 41 days after the initial application) | injury, 51 DAIT ([2]; TSS 28 g ai/ha, two applications, 30-day interval, 51 days after the initial application)
CNC(=O)Nc1ccc(S(=O)(=O)NC(=O)c2ccccc2OC)cc1 [Metcamifen, 2-Methoxy-N-[[4-[[(methylamino)carbonyl]amino]phenyl]sulfonyl]benzamide] | almost complete trifloxysulfuron safening | Less than 5% | almost complete trifloxysulfuron safening |  |  |  |  |  |  |  |  |  |  |  |  |  | 
COc1cc(OC)nc(NC(=O)NS(=O)(=O)c2ncccc2OCC(F)(F)F)n1 [TSS (Monument), N-[[(4,6-dimethoxy-2-pyrimidinyl)amino]carbonyl]-3-(2,2,2-trifluoroethoxy)-2-pyridinesulfonamide] |  |  |  | 40a % | 22.5a % | 40a % | 37.4a % | 40a % | 34.9a % | 32.5a % | 40% | 71% | 85% | 98% | 85% | 80% | 81%
